Results published in PMC11435438, “Cyclin-Dependent Kinase 8 Represents a Positive Regulator of Cytomegalovirus Replication and a Novel Host Target for Antiviral Strategies” (Pharmaceutics, 2024).
Read-outs that look alike come from different tables or passages of the source.

Assays:
KSHV rKSHV.219-GFP = assay: KSHV lytic replication assay in iSLK.219 cells; assay type: cell-based, Kaposi's sarcoma-associated herpesvirus; settings: Human gammaherpesvirus 8, read-out: EC50 KSHV
Procedure: Primary human foreskin fibroblasts (HFFs; obtained from clinical samples at Children’s Hospital in Erlangen, Germany), guinea pig embryonic fibroblasts (GPEFs; generously provided by Mark R. Schleiss from the University of Minnesota in Minneapolis, MN, USA), and rat embryonic fibroblasts were cultivated in Eagle’s Minimal Essential Medium (MEM) supplemented with 1 × GlutaMAX™ (both from Thermo Fisher Scientific, Waltham, MA, USA), 10 µg/mL gentamicin, and 10% fetal bovine serum (FBS; Capricorn, Ebsdorfergrund, Germany). Human glioblastoma–astrocytoma cell line (U373) and mouse embryonic fibroblasts (MEFs), both obtained from ATCC (Manassas, VA, USA), and Vero cell sublineage 76 [26], were cultivated in Dulbecco’s modified Eagle’s medium (DMEM) supplemented with 1 × GlutaMAX™, 10 µg/mL gentamicin, and 10% fetal bovine serum. All cultured cells were maintained under the conditions of 37 °C temperature, 5% CO2, and 80% humidity. The regular monitoring for the absence of mycoplasma contamination was conducted using Lonza™ Mycoalert™ (Thermo Fisher Scientific, Waltham, MA, USA). Cultured cell-based viral replication assays were performed by the use of the HCMV strain AD169 (variant U.K.), the recombinant HCMVs AD169-GFP expressing green fluorescent protein [27], TB40 IE2-YFP and TB40-FLuc expressing an IE2-YFP fusion protein or firefly luciferase (FLuc), and Merlin-GFP [31]. […]
A variety of antiherpesviral and non-herpesviral drug activities were assessed by the cell culture-based viral replication systems, as described elsewhere. […] After incubation at 37 °C for 3 days, iSLK.219 cells were fixed with 10% formalin, washed with PBS, and used for a quantitation of RFP reporter signal by PicoMD counting (ImageXpress® Pico device, Molecular Devices LLC, San Jose, CA, USA). […]

[1] = Neutral Red uptake cell viability assay in mock-infected HFFs; assay type: cell-based; settings: human, read-out: CC50 Mock-inf.
Procedure: To address cell viability after compound treatment, a NR uptake assay was performed. Uninfected cells were seeded at equal numbers as for antiviral replication assays and treated with compounds or solvent control. The treatment was performed for HFFs (7 d), U373 (14 d), A549 (3 d), J-Jhan (14 d), and non-dox-induced iSLK.219 cells (3 d). At the end of the treatment period, 40 µg/mL of Neutral Red (NR) was added and incubated for 2–4 h at 37 °C, before the NR-containing supernatant was removed. Cells were destained using a solution containing 50% ethanol, 1% acetic acid, and 49% water. NR fluorescence was quantified using the Victor X4 microplate reader (PerkinElmer, Waltham, MA, USA) (560/630 nm). For the AB cell viability assay, which was also used to quantify virus-induced cytopathogenicity (particularly in the case of GPCMV in GPEFs), cells were seeded at equal numbers as for antiviral replication assays and incubated with a medium containing 25 ng/mL AB (resazurin; Ann Arbor, MI, USA), incubated for 6 h at 37 °C, and used for measurement identical with NR.

HCMV Merlin-GFP [2] = assay: HCMV Merlin-GFP replication assay in HFFs; assay type: cell-based, human cytomegalovirus; settings: Human betaherpesvirus 5, HFF, read-out: EC50 Merlin-GFP
Procedure: (§1) (i.e., 1 × TCID25/7d). Immediately after virus adsorption, the cells were treated with antiviral compounds or solvent control (DMSO). Infections were performed in biological quadruplicates, or as indicated for individual experiments. The cells were fixed by the addition of 150 µL 10% formalin/well 7 d p.i. (Merlin-GFP 14 d p.i.), and washed with PBS. For GFP or YFP quantitation, the Victor X4 microplate reader (PerkinElmer, Waltham, MA, USA) was primarily used, or as a very sensitive alternative, the ImageXpress® Pico device (Molecular Devices LLC, San Jose, CA, USA). Mean EC50 values of antiviral efficacy were calculated on the basis of three experimental replicates or as indicated (measurement of fluorescence values in quadruplicate), and percentage values were provided relative to the solvent control (DMSO).

HCMV Merlin-GFP [3] = assay: HCMV Merlin-GFP replication assay in U373 cells; assay type: cell-based, human cytomegalovirus; settings: Human betaherpesvirus 5, U373 MG, read-out: EC50 Merlin-GFP
Procedure: as §1

HCMV TB40-YFP [4] = assay: HCMV TB40-YFP replication assay in U373 cells; assay type: cell-based, human cytomegalovirus; settings: Human betaherpesvirus 5, U373 MG, read-out: EC50 TB40-YFP
Procedure: as §1

HCMV TB40-YFP [5] = assay: HCMV TB40-YFP replication assay in HFFs; assay type: cell-based, human cytomegalovirus; settings: Human betaherpesvirus 5, HFF, read-out: EC50 TB40-YFP
Procedure: as §1

[6] = mock-infected (uninfected) HFFs

| SMILES | EC50 (KSHV rKSHV.219-GFP) | CC50 at 7 d [1, 6] | EC50 (HCMV Merlin-GFP [2]) | EC50 (HCMV Merlin-GFP [3]) | EC50 (HCMV TB40-YFP [4]) | EC50 (HCMV TB40-YFP [5]) | CC50 at 7 d ([1]; HFF) |
| --- | --- | --- | --- | --- | --- | --- | --- |
| Cc1n[nH]c2ncc(C(=O)N3CCC[C@H]3c3ccc(Cl)cc3)cc12 [MSC-2530818] | > 40000 nM | > 100000 nM | 5.55 ± 5.63 nM | 4.47 ± 4.4 nM | 12.3 ± 11.3 nM | 4.97 ± 3.3 nM | – |
| Cn1ncc2cc(-c3cnc(N)c(Cl)c3N3CCC4(CCNC4=O)CC3)ccc21 [CCT-151921] | 300 nM | – | 1.27 ± 1.17 nM | 14.7 ± 16.3 nM | 8.5 ± 11.1 nM | 10 ± 6.33 nM | > 100000 nM |
| CN(C)C(=O)Cn1cc(-c2ccc(-c3cncc4ccccc34)cc2)cn1 [BI-1347] | 310 ± 610 nM | > 100000 nM | 0.54 ± 0.99 nM | 1.4 ± 1.37 nM | 19.3 ± 21 nM | 2.83 ± 2.3 nM | – |
